Experimental data from ChEMBL document CHEMBL6096669, “Design and synthesis of novel derivatives of bisepoxylignans as potent anti-inflammatory agents involves the modulation of the M1/M2 microglia phenotype via TLR4/NF-κB signaling pathway” (Eur J Med Chem, 2025).
Activity calls are given as the source filed them. The calls are words filed in the database; no cut-off is given here.

What was measured:
[1] = Inhibition of LPS-induced NO production in mouse BV-2 cells at 10 uM measured after 24 hrs followed by induced with LPS for another 24 hrs by ELISA relative to control; type: functional
BV-2 [2] = experiment: Anti-neuroinflammatory activity against LPS-induced mouse BV-2 cells assessed as smaller cell bodies and morphology at 20 uM by bright field microscopy relative to LPS-induced control; type: functional, cell-based
BV-2 [3] = experiment: Anti-inflammatory activity against LPS-induced mouse BV-2 cells assessed as decrease in LPS-induced iNOS mRNA expression at 5 uM incubated for 4 hrs followed by LPS induced for 12 hrs by RT-PCR analysis relative to control; type: functional, cell-based; conditions: time 16.0 hrs
BV-2 [4] = experiment: Anti-inflammatory activity against LPS-induced mouse BV-2 cells assessed as decrease in LPS-induced TNF-alpha mRNA expression at 10 to 20 uM incubated for 4 hrs followed by LPS induced for 12 hrs by RT-PCR analysis relative to control; type: functional, cell-based; conditions: dose 10-20 µM, time 16.0 hrs
BV-2 [5] = experiment: Anti-inflammatory activity against LPS-induced mouse BV-2 cells assessed as decrease in LPS-induced IL-1beta mRNA expression at 5 uM incubated for 4 hrs followed by LPS induced for 12 hrs by RT-PCR analysis relative to control; type: functional, cell-based; conditions: time 16.0 hrs
BV-2 [6] = experiment: Anti-inflammatory activity against LPS-induced mouse BV-2 cells assessed as decrease in LPS-induced IL-1beta mRNA expression at 10 to 20 uM incubated for 4 hrs followed by LPS induced for 12 hrs by RT-PCR analysis relative to control; type: functional, cell-based; conditions: dose 10-20 µM, time 16.0 hrs
[7] = Biodistribution in C57BL/6 mouse lung at 20 mg/kg, IG measured after 15 mins; type: ADME, organism-based; conditions: in vivo, po, 0.25 h
[8] = Biodistribution in C57BL/6 mouse kidney at 20 mg/kg, IG measured after 15 mins; type: ADME, organism-based; conditions: in vivo, po, 0.25 h
Mus musculus [9] = experiment: Anti-neuroinflammatory activity against LPS-induced male C57BL/6 mouse assessed as suppression of LPS-induced TLR4 protein level at 20 mg/kg, po administered for 3 days followed by induced with LPS by tail vein injection by Western blot analysis; type: functional, organism-based; conditions: time 3.0 day
Mus musculus [10] = experiment: Anti-neuroinflammatory activity against LPS-induced male C57BL/6 mouse assessed as suppression of LPS-induced p-IkappaB-alpha protein level at 20 mg/kg, po administered for 3 days followed by induced with LPS by tail vein injection by Western blot analysis; type: functional, organism-based; conditions: time 3.0 day
Mus musculus [11] = experiment: (§1) Anti-neuroinflammatory activity against LPS-induced male C57BL/6 mouse assessed as suppression of LPS-induced pathological changes in lung at 20 mg/kg, po administered for 3 days followed by induced with LPS by tail vein injection by hematoxylin-eosin staining based assay; type: functional, organism-based; conditions: time 3.0 day
Mus musculus [12] = experiment: Anti-neuroinflammatory activity against LPS-induced male C57BL/6 mouse assessed as suppression of LPS-induced pathological changes in kidney at 20 mg/kg, po administered for 3 days followed by induced with LPS by tail vein injection by hematoxylin-eosin staining based assay; type: functional, organism-based; conditions: time 3.0 day
Mus musculus [13] = experiment: Anti-neuroinflammatory activity against LPS-induced male C57BL/6 mouse assessed as suppression of LPS-induced pathological changes in liver at 20 mg/kg, po administered for 3 days followed by induced with LPS by tail vein injection by hematoxylin-eosin staining based assay; type: functional, organism-based; conditions: time 3.0 day
Mus musculus [14] = experiment: as §1, with “microglial activation by measuring decrease” for “pathological changes”, “IBA1 fluorescence intensity” for “lung”, “immunofluorescence” for “hematoxylin-eosin”; type: functional, organism-based; conditions: time 3.0 day
BV-2 [15] = experiment: Anti-inflammatory activity against LPS-induced mouse BV-2 cells assessed as decrease in LPS-induced TNFalpha production at 5 to 10 uM incubated for 4 hrs followed by LPS induced for 24 hrs by Western blotting analysis; type: functional, cell-based; conditions: dose 5-10 µM

For O=c1[nH]c2ccc(Nc3ncnc4c3ccn4Cc3ccc(F)cc3)cc2[nH]1, the inhibition at 10 µM [1] was 95%, the Activity (BV-2 [2]) was “Active” and the Activity (BV-2 [3]) was “Not active; No Significant Effect Observed Vs Lps”. The Activity (BV-2 [4]) was “Active”, the Activity (BV-2 [5]) was “Not active; No Significant Effect Observed Vs Lps” and the Activity (BV-2 [6]) was “Active”. For the same compound, the Drug uptake [7] was “Active”, the Drug uptake [8] was “Active” and the Activity (Mus musculus [9]) was “Active”. For the same compound, the Activity (Mus musculus [10]) was “Active”, the Activity (Mus musculus [11]) was “Active; Decreased Lps-Induced Visceral Injury (Cell Morphology, Hemorrhage, And Neutrophil Infiltration) And Maintaining Normal Cell Shape And Arrangement And Enhancing Infiltration Of Inflammatory Cells” and the Activity (Mus musculus [12]) was “Active; Decreased Lps-Induced Visceral Injury (Cell Morphology, Hemorrhage, And Neutrophil Infiltration) And Maintaining Normal Cell Shape And Arrangement And Enhancing Infiltration Of Inflammatory Cells”. For the same compound, the Activity (Mus musculus [13]) was “Active; Decreased Lps-Induced Visceral Injury (Cell Morphology, Hemorrhage, And Neutrophil Infiltration) And Maintaining Normal Cell Shape And Arrangement And Enhancing Infiltration Of Inflammatory Cells”, the Activity (Mus musculus [14]) was “Active” and the Activity (BV-2 [15]) was “Not active; No Significant Effect Observed Vs Lps”.
